System: TG, non-HDL-C, LDL-C, HDL-C, apo B, hsCRP
Test: REDUCE-IT trial: fasting lipid, lipoprotein and inflammatory marker data over time
Format: in vivo, human
Description: Fasting Lipid Profile: The fasting lipid panel included: TG, TC, LDL-C, HDL-C, non-HDL-C, and VLDL-C. At all visits, LDL-C was calculated using the Friedewald equation. At Visit 1 and Visit 1.1 direct LDL-C were used if at the same visit TG>400 mg/dL (4.52 mmol/L). These LDL-C values were used for the evaluation of the LDL-C inclusion criterion (LDL-C qualifying measurements for randomization) and for the assessment of changes in the statin therapy when LDL-C was not at goal. […] In addition, irrespective of the TG levels, at Visit 2 (0 Months of Follow-up, baseline) and at Visit 4 (12 Months of Follow-up), LDL-C were measured by preparative ultracentrifugation. These preparative ultracentrifugation LDL-C measurements were used in the statistical analysis including the calculation of the percent change from baseline (1 year versus baseline). Hopkins LDL-C was calculated for each visit.
Biomarkers Assays: The biomarker assays included: hsCRP, Apo B and hsTnT.
The fasting lipid panel was tested at Screening (Visit 1 or Visit 1.1), Randomization visit (Visit 2; Day 0), Visit 3 (Day 120; ˜4 Months) and all other follow-up visits including the last visit. For change from baseline to 1 year preparative ultracentrifugation measurements for LDL-C were analyzed, unless this value was missing. If the LDL-C preparative ultracentrifugation values were missing, then another LDL-C value was used, with prioritization of values obtained from LDL-C Direct measurements, followed by LDL-C derived by the Friedewald calculation (only for subjects with TG<400 mg/dL), and finally LDL-C derived using the calculation published by Hopkins University investigators (Martin S S, Blaha M J, Elshazly M B, et al. Comparison of a novel method vs the Friedewald equation for estimating low-density lipoprotein cholesterol levels from the standard lipid profile. JAMA. 2013; 310:2061-8.). In addition, change from baseline to day 120 in LDL-C utilizing Friedewald's and Hopkins methods was analyzed, using the arithmetic mean of LDL-C obtained at Visit 2 (Day 0) and the preceding Visit 1 (or Visit 1.1). If one of these values was missing, the single available LDL-C value was used. LDL-C according to Hopkins was calculated at each visit.
The randomization visit was considered Baseline. If a baseline value was not available from the randomization visit, then the latest screening value was used. For measurements of lipids, lipoproteins and inflammatory markers, the change and the percent change were summarized at each visit. Since these biomarkers are typically not normally distributed, the Wilcoxon rank-sum test was used for treatment comparisons of the percent change from baseline, and medians and quartiles were provided for each treatment group. The medians of the differences between the treatment groups and 95% CIs were estimated with the Hodges-Lehmann method. In addition, shift-tables were generated as appropriate.

CC/C=C\C/C=C\C/C=C\C/C=C\C/C=C\CCCC(=O)OCC [icosapent ethyl, eicosapentaenoic acid ethyl ester]
Apo B Median % Change from Baseline (Last Visit): −2.5%
Apo B Median Absolute Change from Baseline (Last Visit): -2.0 mg/dL
Apo B Median Observed Value (Last Visit): 80.0 mg/dL
HDL-C Median % Change from Baseline (Last Visit): 2.5%
HDL-C Median Absolute Change from Baseline (Last Visit): 1.0 mg/dL
HDL-C Median Observed Value (Last Visit): 41.0 mg/dL
LDL-C Hopkins Median % Change from Baseline (Last Visit): −1.2%
LDL-C Hopkins Median Absolute Change from Baseline (Last Visit): -1.0 mg/dL
LDL-C Hopkins Median Observed Value (Last Visit): 84.0 mg/dL
LDL-C derived Median % Change from Baseline (Last Visit): 3.1%
LDL-C derived Median Absolute Change from Baseline (Last Visit): 2.0 mg/dL
LDL-C derived Median Observed Value (Last Visit): 77.0 mg/dL
Log hsCRP Median % Change from Baseline (Last Visit): −23.1%
Log hsCRP Median Absolute Change from Baseline (Last Visit): −0.1 mg/L
Log hsCRP Median Observed Value (Last Visit): 0.6 mg/L
Non-HDL-C Median % Change from Baseline (Last Visit): −4.4%
Non-HDL-C Median Absolute Change from Baseline (Last Visit): -5.0 mg/dL
Non-HDL-C Median Observed Value (Last Visit): 112.0 mg/dL
Triglycerides Median % Change from Baseline (Last Visit): −21.6%
Triglycerides Median Absolute Change from Baseline (Last Visit): -45.0 mg/dL
Triglycerides Median Observed Value (Last Visit): 170.0 mg/dL
hsCRP Median % Change from Baseline (Last Visit): −12.6%
hsCRP Median Absolute Change from Baseline (Last Visit): -0.2 mg/L
hsCRP Median Observed Value (Last Visit): 1.8 mg/L
Apo B Between Group Difference Median % Change from Baseline (Last Visit, vs placebo): −6.7%
Apo B Between Group Difference Median Absolute Change from Baseline (Last Visit, vs placebo): -5.0 mg/dL
HDL-C Between Group Difference Median % Change from Baseline (Last Visit, vs placebo): −3.0%
HDL-C Between Group Difference Median Absolute Change from Baseline (Last Visit, vs placebo): -1.0 mg/dL
LDL-C Hopkins Between Group Difference Median % Change from Baseline (Last Visit, vs placebo): −7.4%
LDL-C Hopkins Between Group Difference Median Absolute Change from Baseline (Last Visit, vs placebo): -6.2 mg/dL
LDL-C derived Between Group Difference Median % Change from Baseline (Last Visit, vs placebo): −6.6%
LDL-C derived Between Group Difference Median Absolute Change from Baseline (Last Visit, vs placebo): -5.0 mg/dL
Log hsCRP Between Group Difference Median % Change from Baseline (Last Visit, vs placebo): −21.2%
Log hsCRP Between Group Difference Median Absolute Change from Baseline (Last Visit, vs placebo): −0.4 mg/L
Non-HDL-C Between Group Difference Median % Change from Baseline (Last Visit, vs placebo): −8.6%
Non-HDL-C Between Group Difference Median Absolute Change from Baseline (Last Visit, vs placebo): -10.0 mg/dL
Triglycerides Between Group Difference Median % Change from Baseline (Last Visit, vs placebo): −14.1%
Triglycerides Between Group Difference Median Absolute Change from Baseline (Last Visit, vs placebo): -32.0 mg/dL
hsCRP Between Group Difference Median % Change from Baseline (Last Visit, vs placebo): −37.6%
hsCRP Between Group Difference Median Absolute Change from Baseline (Last Visit, vs placebo): -0.8 mg/L
HDL-C Median % Change from Baseline (Month 4): −2.8%
HDL-C Median Absolute Change from Baseline (Month 4): -1.0 mg/dL
HDL-C Median Observed Value (Month 4): 39.0 mg/dL
LDL-C Hopkins Median % Change from Baseline (Month 4): −2.0%
LDL-C Hopkins Median Absolute Change from Baseline (Month 4): -1.6 mg/dL
LDL-C Hopkins Median Observed Value (Month 4): 83.6 mg/dL
Non-HDL-C Median % Change from Baseline (Month 4): −4.0%
Non-HDL-C Median Absolute Change from Baseline (Month 4): -4.5 mg/dL
Non-HDL-C Median Observed Value (Month 4): 113.0 mg/dL
Triglycerides Median % Change from Baseline (Month 4): −18.6%
Triglycerides Median Absolute Change from Baseline (Month 4): -37.5 mg/dL
Triglycerides Median Observed Value (Month 4): 177.0 mg/dL
HDL-C Between Group Difference Median % Change from Baseline (Month 4, vs placebo): −7.2%
HDL-C Between Group Difference Median Absolute Change from Baseline (Month 4, vs placebo): -3.0 mg/dL
LDL-C Hopkins Between Group Difference Median % Change from Baseline (Month 4, vs placebo): −10.3%
LDL-C Hopkins Between Group Difference Median Absolute Change from Baseline (Month 4, vs placebo): -8.7 mg/dL
Non-HDL-C Between Group Difference Median % Change from Baseline (Month 4, vs placebo): −12.2%
Non-HDL-C Between Group Difference Median Absolute Change from Baseline (Month 4, vs placebo): -14.3 mg/dL
Triglycerides Between Group Difference Median % Change from Baseline (Month 4, vs placebo): −20.1%
Triglycerides Between Group Difference Median Absolute Change from Baseline (Month 4, vs placebo): -45.5 mg/dL
HDL-C Median % Change from Baseline (Year 1): −2.6%
HDL-C Median Absolute Change from Baseline (Year 1): -1.0 mg/dL
HDL-C Median Observed Value (Year 1): 39.0 mg/dL
LDL-C Hopkins Median % Change from Baseline (Year 1): −1.2%
LDL-C Hopkins Median Absolute Change from Baseline (Year 1): -1.1 mg/dL
LDL-C Hopkins Median Observed Value (Year 1): 85.3 mg/dL
LDL-C derived Median % Change from Baseline (Year 1): 3.1%
LDL-C derived Median Absolute Change from Baseline (Year 1): 2.0 mg/dL
LDL-C derived Median Observed Value (Year 1): 77.0 mg/dL
Non-HDL-C Median % Change from Baseline (Year 1): −3.6%
Non-HDL-C Median Absolute Change from Baseline (Year 1): -4.0 mg/dL
Non-HDL-C Median Observed Value (Year 1): 113.0 mg/dL
Triglycerides Median % Change from Baseline (Year 1): −18.3%
Triglycerides Median Absolute Change from Baseline (Year 1): -39.0 mg/dL
Triglycerides Median Observed Value (Year 1): 175.0 mg/dL
HDL-C Between Group Difference Median % Change from Baseline (Year 1, vs placebo): −6.3%
HDL-C Between Group Difference Median Absolute Change from Baseline (Year 1, vs placebo): -2.5 mg/dL
LDL-C Hopkins Between Group Difference Median % Change from Baseline (Year 1, vs placebo): −11.4%
LDL-C Hopkins Between Group Difference Median Absolute Change from Baseline (Year 1, vs placebo): -9.6 mg/dL
LDL-C derived Between Group Difference Median % Change from Baseline (Year 1, vs placebo): −6.6%
LDL-C derived Between Group Difference Median Absolute Change from Baseline (Year 1, vs placebo): -5.0 mg/dL
Non-HDL-C Between Group Difference Median % Change from Baseline (Year 1, vs placebo): −13.1%
Non-HDL-C Between Group Difference Median Absolute Change from Baseline (Year 1, vs placebo): -15.5 mg/dL
Triglycerides Between Group Difference Median % Change from Baseline (Year 1, vs placebo): −19.7%
Triglycerides Between Group Difference Median Absolute Change from Baseline (Year 1, vs placebo): -44.5 mg/dL
Apo B Median Year 1 (Year 1 in Table 18): 80.0 mg/dL
hsCRP Median Year 1 (Year 1 in Table 18): 1.8 mg/L
Apo B Median Between Group Difference at Year 1, % Change from Baseline (Year 1 in Table 18, vs placebo): −9.7%
Apo B Median Between Group Difference at Year 1, Absolute Change from Baseline (Year 1 in Table 18, vs placebo): -8.0 mg/dL
hsCRP Median Between Group Difference at Year 1, % Change from Baseline (Year 1 in Table 18, vs placebo): −39.9%
hsCRP Median Between Group Difference at Year 1, Absolute Change from Baseline (Year 1 in Table 18, vs placebo): -0.9 mg/L
Apo B Median % Change from Baseline (Year 2): −2.5%
Apo B Median Absolute Change from Baseline (Year 2): -2.0 mg/dL
